Details: 5500 kPa, Brillouin Light Scattering

CCCCCC [hexane]
speed of sound [m/s]
Details | 300.09 K | 353.12 K | 403.17 K | 453.15 K | 503.13 K | 547.89 K | 578.22 K | 608.05 K | 636.04 K
Fluid (supercritical or subcritical phases) | – | – | – | – | – | 158.25 | 154.04 | 178.03 | 194.98
Liquid | 1111.2 | 898.5 | 705.9 | 513 | 323.7 | – | – | – | –

Source: the NIST ThermoML archive (doi:10.1016/j.jct.2016.09.005)
